Measurements taken from patent US4193913A, “Thermoplastic vinyl chloride polymers containing monoalkyl-tin-stabilizers” (priority 1978, dated 1980).

Legend:
[1] = system: rats; assay: Acute oral LD50 in rats; type: in vivo, rat; details: for acute oral LD50: rats of both sexes, oral intubation
Protocol: Compound III was weighed into an Erlenmeyer flask. It was diluted at 30 and 50% with carboxymethylcellulose and administered by oral intubation.
The compound was tested on 40 rats (20 males/20 females). They were 6 to 7 weeks old and weighed 160 to 180 g.
The males and females were segregated and housed in Macrolon cages in groups of 5 in a room kept at a constant temperature of 22 ±1° C. and a relative humidity of approximately 50%. They received water and food ad libitum. The rats were starved during one night before starting the treatment. The doses were 3170, 4640, 6000 and 10,000 mg/kg body weight.

[2] = system: rats; assay: No effect level, 90-day dietary administration to rats with 28-day recovery; type: in vivo, rat; details: for no effect level (dietary concentration): diet
Protocol: Compound III was administered in the diet to groups of 30 (groups 2 and 3) and 40 (group 4) rats at concentrations of 300, 1000 and 3000 ppm respectively (equivalent to an average daily intake of 19, 62 and 179 mg/kg body weight), for not less than 90 days. Forty rats in the control group received the same diet but without the addition of Compound III.
Ten rats (5+5) from each of groups 1 (control) and 4 (3000 ppm) were retained without treatment for 28 days after the end of the main study, as a recovery experiment.

[3] = Heat stability test on laboratory mill (Example 11); details: 190° C., 1.0 part stabiliser per 100 parts suspension PVC, 0.5 part montan wax, 1.0 part monoglycerol ester
Protocol: (§1) A dry blend, consisting of 100 parts of suspension PVC, 0.5 part of montan wax, 1.0 part of monoglycerol ester and 1.0 part of organo-tin stabiliser according to the table below, is milled on a laboratory mill at 190° C. Every 5 minutes, an 0.3 mm thick piece of film is taken off to asist the discolouration.

[4] = Milling test, impact-modified suspension PVC (Example 15); details: 190° C.
Protocol: Experiment 1: A dry blend, consisting of 100 parts by weight of suspension PVC (K-value 58), 1.0 part by weight of wax ester and 0.2 part by weight of montan wax as the lubricant, 1.0 part by weight of acrylic resin as a processing aid, 12.0 parts by weight of MBS modifying resin, as an additive to improve impact strength, and 0.8 part by weight of methyl-tin tris-(myristyl-thioglycollate), corresponding to 0.09 part of tin, is milled on a laboratory mill at 190° C. Every 5 minutes, an 0.3 mm thick piece of film is removed to assess the discolouration.
Experiment 2: The above experiment is repeated with 1.1 parts by weight of the same stabiliser, corresponding to 0.13 part of tin. The very slight yellow discolouration in this case occurs after 20 minutes, and the light yellow discolouration after 25 minutes.

[5] = Heat stability, bulk-polymerised PVC at 0.15 g Sn/100 g PVC (Example 12); details: 0.3 part montan wax, 0.15 g of Sn/100 g of PVC
Protocol: as §1
Moulding materials consisting of 100 parts of bulk-polymerised PVC and 0.3 part of montan wax together with the organo-tin stabilisers according to the table which follows are examined for their heat stability, analogously to Example 11. The amounts of stabiliser are calculated to correspond to the use of 0.15 g of Sn/100 g of PVC.

[6] = Milling test, vinyl chloride/vinyl acetate copolymer (Example 13); details: 20 minutes at 180° C., 1.35 g stabiliser, 0.13 g of tin per 100 parts of copolymer
Description: 100 parts of a vinyl chloride/vinyl acetate copolymer (vinyl acetate content 10%, K-value 60 to 61) are premixed with 0.5 part of montan wax, 1.0 part of monoglycerol ester and an organo-tin stabiliser of the formula C8 H17 Sn(SCH2 COO-n-C16 H33)3. The amount of organo-tin stabiliser (1.35 g) is so chosen that 0.13 g of tin are present per 100 parts of copolymer.

[7] = Milling test, plasticised suspension PVC (Example 14); details: 180° C., 0.5 part by weight stabiliser
Protocol: A mixture of 100 parts by weight of suspension PVC (K-value 71), 40 parts by weight of di-2-ethylhexyl phthalate, 0.3 part by weight of montan wax and 0.5 part by weight of octyl-tin tris-cetyl-thioglycollate, corresponding to 0.05 g of Sn/100 g of PVC, is milled on a laboratory mill at 180° C. until yellowing beings to occur.

[8] = tin content of 49%; known stabiliser; cited from earlier work
[9] = 300, 1000 and 3000 ppm in diet, not less than 90 days
[10] = 0.8 part by weight stabiliser, 0.09 part of tin (Experiment 1)
[11] = 1.1 parts by weight stabiliser, 0.13 part of tin (Experiment 2)

## CCCCCCC[CH2][Sn]([CH2]CCCCCCC)([S]CC(=O)OCCCCCC(C)C)[S]CC(=O)OCCCCCC(C)C [Compound I, (n-C8 H17)2 Sn(SCH2 COO-i-C8 H17)2, reference compound]
[1]; 14 days
  acute oral LD50: 2000 mg/kg
[2]; rats, not less than 90 days
  no effect level (dietary concentration): 25 ppm

## CCCCCCC[CH2][Sn]([S]CC(=O)OCCCCCC(C)C)([S]CC(=O)OCCCCCC(C)C)[S]CC(=O)OCCCCCC(C)C [Compound II, n-C8 H17 Sn(SCH2 COO-i-C8 H17)3, reference compound]
[1]; 14 days
  acute oral LD50: 5000 mg/kg
[2]; rats, not less than 90 days
  no effect level (dietary concentration): 500 ppm

## CCCCCCCCCCCCCCOC(=O)C[S][Sn]([CH2]CCCCCCC)([S]CC(=O)OCCCCCCCCCCCCCC)[S]CC(=O)OCCCCCCCCCCCCCC [Compound III, n-C8 H17 Sn(SCH2 COO-n-C14 H29)3]
[1]; 3170, 4640, 6000 and 10,000 mg/kg body weight, 14 days
  mortality, acute test: No animal died
[1]; killed animals, 3170 to 10,000 mg/kg
  autopsy findings, acute test: no substance related gross organ changes were seen
[1]; rat, oral
  acute toxicity grading: slight acute toxicity
[1]; 14 days
  acute oral LD50: greater than 10,000 mg/kg
[2]; [9]
  clinical symptoms, 90-day diet study: no clinical symptoms were recorded
  deaths, 90-day diet study: No deaths occured
[2]; group 4 (3000 ppm) versus control, 28 days recovery
  body weight gains, food consumption, laboratory parameters, organ weight data after recovery: no significant difference
[2]; group 4 (3000 ppm), 28 days recovery
  histopathological changes after recovery: No histopathological changes were seen
[2]; male rats, 3000 ppm, following day 14, versus untreated controls
  body weight gain: gained less body weight than untreated controls
[2]; male rats, 3000 ppm, versus untreated control animals
  body weights at termination of treatment: slightly below those from untreated control animals
[2]; rats, not less than 90 days
  no effect level (dietary concentration): 3000 ppm
[2]; rats, equivalent to 3000 ppm in diet, 129600 min
  no effect level as average daily intake: 179 mg/kg body weight
[2]; top dose rats (3000 ppm)
  feed consumption: decreased feed consumption

## CCCCCCCCCCCCCCOC(=O)C[S][Sn]([CH3])([S]CC(=O)OCCCCCCCCCCCCCC)[S]CC(=O)OCCCCCCCCCCCCCC [Example 1, methyl-tin tris-(myristyl-thioglycollate)]
[3]
  Heat stability of the moulding material (time to recognisable colour change to light brown-yellow): 25 min
[4]; [10]
  milling time to reach a light yellow discolouration: 20 min
  milling time to reach a very slight yellow discolouration: 15 min
[4]; [11]
  milling time to light yellow discolouration: 25 min
  milling time to very slight yellow discolouration: 20 min

## CCCCCCCCCCCCOC(=O)C[S][Sn]([CH2]CCC)([S]CC(=O)OCCCCCCCCCCCC)[S]CC(=O)OCCCCCCCCCCCC [Example 2, butyl-tin tris-(lauryl-thioglycollate)]
[5]
  Time in minutes for which the films remain colourless: 25 min

## CCCCCCCCCCCCCCCCOC(=O)C[S][Sn]([CH2]CCC)([S]CC(=O)OCCCCCCCCCCCCCCCC)[S]CC(=O)OCCCCCCCCCCCCCCCC [Example 3, butyl-tin tris-(cetyl-thioglycollate)]
[5]
  Time in minutes for which the films remain colourless: 35 min

## CCC[CH2][Sn]([S]CC(=O)OCCCCCCCCCCCCCCCC(C)C)([S]CC(=O)OCCCCCCCCCCCCCCCC(C)C)[S]CC(=O)OCCCCCCCCCCCCCCCC(C)C [Example 8, butyl-tin tris-(i-octadecyl thioglycollate)]
[5]
  Time in minutes for which the films remain colourless: 30 min

## CCCCCCCCCCCCCCCCOC(=O)C[S][Sn]([CH2]CCCCCCC)([S]CC(=O)OCCCCCCCCCCCCCCCC)[S]CC(=O)OCCCCCCCCCCCCCCCC [Example 10, octyl-tin tris-(cetyl-thioglycollate)]
[6]
  yellowing detectable after milling: only very slight yellowing is detectable
[3]
  Heat stability of the moulding material (time to recognisable colour change to light brown-yellow): 25 min
[7]; 0.05 g of Sn/100 g of PVC, 40 parts di-2-ethylhexyl phthalate
  time until a very slight yellowing is just detectable: 74 min
[7]; 105 minutes
  appearance of the mill hide after 105 minutes: slightly yellow

## butyl-tin tris(alfyl(12)-thioglycollate) [Example 4]
[5]
  Time in minutes for which the films remain colourless: 30 min

## butyl:tin tris(alfyl(14)-thioglycollate) [Example 5]
[3]
  Heat stability of the moulding material (time to recognisable colour change to light brown-yellow): 25 min

## butylthiostannonic acid
[8]
  stabiliser effect relative to tin content: relatively slight effect

## octyl-tin tris(alfyl(14)-thioglycollate) [Example 9]
[5]
  Time in minutes for which the films remain colourless: 35 min
